Where “and” joins values, the source holds several entries; their conditions need not be identical. Identical values can stand only once. Square brackets hold non-standard residues; d marks the D form. Peptide text beside a SMILES is read from it.
Key:
Human IL-13 = Human IL-13 (Homo sapiens, UniProt P35225); test: Surface plasmon resonance (SPR) binding assay, BIAcore 8K plus, immobilized Fc-tagged IL-13; conditions: 25° C., human IL-13 with Fc-tag immobilized on CM5 chip, read-out: Binding Affinity (KD) for IL-13
Description: A SPR assay was conducted to determine the binding affinity of the cyclic oligopeptides generated in Example 1 for IL-13 using a BIAcore 8K plus instrument (GE Healthcare). Human IL-13 with an Fc-tag was immobilized onto the surfaces of Series S Sensor CM5 (GE Healthcare) chips in the range of 5000 resonance units (RU). The binding kinetics were performed at 25° C. with a flow rate of 30 μL/min. The cyclic oligopeptides were analyzed in running buffer comprising 20 mM PBS, 2.7 mM KCl, […], 0.0500 Surfactant P20, pH 7.4, 1% DMSO, starting at 100 μM with gradient of ten two-fold dilutions using solvent correction mode.
FIGS. 2C, 3C, 4C, 5C, 6C, 7C, 8C, 9C, 10C, 11C, and 12C provide SPR response curves for the cyclic oligopeptides generated in Example 1, wherein the x-axis represents time of reaction and y-axis represents altitude of response (Response Units).

[1] = Skin permeability, Franz Cell diffusion cell with artificial skin, Transdermal Diffusion Tester, BCA assay; type: in vitro ADME; conditions: for Average Permeation Rate After 1 Hour (%) / Average Permeation Rate After 24 Hours (%): 32° C., 1.0 mg/mL in PBS; for Average Permeation Rate After 1 Hour (%) / Papp at 1 h, 1 mg/mL: after 1 hour; for Papp at 1 h, 1 mg/mL: read-out: Average Permeability Coefficient (Kp) After 1 hour (converted); for Average Permeation Rate After 24 Hours (%) / Papp at 24 h, 1 mg/mL: after 24 hours; for Papp at 24 h, 1 mg/mL: read-out: Average Permeability Coefficient (Kp) After 24 hours
Description: As used herein, the term “skin permeation rate” of a cyclic oligopeptide is measured using artificial skin (Start M, Merck), and refers to the percentage of the cyclic oligopeptide that penetrate the artificial skin after certain amount of time. For example, if 60% of the total amount of a cyclic oligopeptide of this disclosure has penetrated the artificial skin after 24 hours, then the skin permeation rate of the cyclic oligopeptide is 60% after 24 hours.
As used herein, the term “skin permeability coefficient (Kp)” refers to the rate at which the cyclic oligopeptide penetrates the skin, as measured using artificial skin (Start M, Merck). In some embodiments, permeability coefficient (Kp)(cm/hr) is calculated with the following equation:
[formula] wherein Q(mg) refers to the total amount of cyclic oligopeptide that pass through the artificial skin within a certain amount of time; A(cm^2) refers to the internal cross-section area of the artificial skin in a diffusion cell; T(hr) refers to the total amount of time of cyclic oligopeptide permeation; and ΔC(mg/mL) refers to the concentration difference of the cyclic oligopeptide between the two sides of the artificial skin. In some embodiments, the diffusion cell is a Franz Cell.
Skin permeability of the cyclic oligopeptides generated in Example 1 was measured using Transdermal Diffusion Tester (TK-12D, Shanghai Kai Kai Industrial Co Ltd) and artificial skin (Start M, Merck). Three parallel experimental groups were set up for each sample. The skin permeability of cyclic oligopeptides was evaluated by the following steps: • 1) 2.0 mg cyclic oligopeptide was weighed and dissolved in 100 μL DMSO. Three parallel experimental groups were set up for each cyclic oligopeptide. The cyclic oligopeptide-containing solution was then slowly added dropwise to 1900 μL 1×PBS solution and mixed evenly to prepare a PBS solution with a final concentration of 1.0 mg/mL cyclic polypeptide. • 2) A magnetron was inserted into a Franz Cell diffusion cell, and an artificial skin was sandwiched in the middle of the diffusion cell with the smooth side of the artificial skin facing up. The diffusion cell was then fixed with clamps after assembly. • 3) 7.75 ml 1×PBS solution were then added to the diffusion cell without generating bubbles in the diffusion cell. The sampling port of the diffusion cell was then sealed with parafilm to reduce evaporation. • 4) The temperature of a Transdermal Diffusion Tester was then set to 32° C., and the magneton speed was set to 180 r/min. • 5) The assembled diffusion cell was then put into the Transdermal Diffusion Tester and preheated for 5-10 mins. • 6) 400 μL of 1.0 mg/mL cyclic oligopeptide solution prepared in step 1) was then added to the upper chamber of the diffusion cell, making it evenly dispersed on the surface of the artificial skin without air bubbles. The top port of the diffusion cell was then covered with parafilm to reduce evaporation. • 7) Starting from the time of adding the cyclic oligopeptide solution, samples of about 0.5 mL of the receiving solution were taken at six time points, 1 h, 2 h, 4 h, 8 h, 12 h and 24 h, using a plastic dropper to take out the samples from the sampling port of the diffusion cell. 0.5 mL of 1×PBS solution was added into the diffusion cell to restore the initial volume of the receiving solution. When sampling, the diffusion cell was tilted appropriately to avoid the generation of bubbles. The samples were then numbered and store at −20° C. • 8) A BCA Assay (Micro BCA Protein Assay Kit, Thermo Scientific) was conducted to measure the concentration of cyclic oligopeptide in samples obtained in step 7) (Actual Concentration of the cyclic oligopeptide at the particular time point). Three parallel groups were used. The weight of cyclic oligopeptide in each sample obtained in step 7) equals to Actual Concentration×0.5 mL. • 9) Permeation rate of each cyclic oligopeptide at each time point was calculated according to the following equation: […]

FIG. 7D = test: FIG. 7D
Description: Table printed on a drawing sheet, FIG. 7D
The patent's description of the figure: FIG. 7A provides the MS spectrum for Compound 6. FIG. 7B provides the HPLC chromatogram for Compound 6. FIG. 7C provides SPR assay curves showing the binding affinity of Compound 6 for IL-13, the x-axis represents time of reaction and y-axis represents altitude of response (Response Units). FIG. 7D illustrates skin permeation rate of Compound 6 for up to 24 hours. FIG. 7E illustrates average permeability coefficient (Kp) of Compound 6 for 1, 2, 4, 8, 12 and 24 hours.
First reader's note: The substance name Compound 6 is taken from the legend of the plot printed above the table on the same sheet.

FIG. 5D = test: FIG. 5D
Description: Table printed on a drawing sheet, FIG. 5D
The patent's description of the figure: FIG. 5A provides the MS spectrum for Compound 4. FIG. 5B provides the HPLC chromatogram for Compound 4. FIG. 5C provides SPR assay curves showing the binding affinity of Compound 4 for IL-13, the x-axis represents time of reaction and y-axis represents altitude of response (Response Units). FIG. 5D illustrates skin permeation rate of Compound 4 for up to 24 hours. FIG. 5E illustrates average permeability coefficient (Kp) of Compound 4 for 1, 2, 4, 8, 12 and 24 hours.
First reader's note: The substance name is taken from the legend of the plot above the table on the same sheet; the values are skin permeation rates over time.

FIG. 3D = test: FIG. 3D
Description: Table printed on a drawing sheet, FIG. 3D
The patent's description of the figure: FIG. 3A provides the MS spectrum for Compound 2. FIG. 3B provides the HPLC chromatogram for Compound 2. FIG. 3C provides SPR assay curves showing the binding affinity of Compound 2 for IL-13, the x-axis represents time of reaction and y-axis represents altitude of response (Response Units). FIG. 3D illustrates skin permeation rate of Compound 2 for up to 24 hours. FIG. 3E illustrates average permeability coefficient (Kp) of Compound 2 for 1, 2, 4, 8, 12 and 24 hours.
First reader's note: The substance name is taken from the legend of the plot printed above the table; the values are three replicate permeation rates, their average and their range.

FIG. 2D = test: FIG. 2D
Description: Table printed on a drawing sheet, FIG. 2D
The patent's description of the figure: FIG. 2A provides the mass spectrometry (MS) spectrum for Compound 1. FIG. 2B provides the high-performance liquid chromatography (HPLC) chromatogram for Compound 1. FIG. 2C provides surface plasmon resonance (SPR) assay curves showing the binding affinity of Compound 1 for IL-13, the x-axis represents time of reaction and y-axis represents altitude of response (Response Units). FIG. 2D illustrates skin permeation rate of Compound 1 for up to 24 hours. FIG. 2E illustrates average permeability coefficient (Kp) of Compound 1 for 1, 2, 4, 8, 12 and 24 hours.
First reader's note: Substance name is taken from the legend of the plot printed above the table; the values are skin permeation in three replicates, their average and their range.

FIG.4D = test: FIG.4D
Description: Table printed on a drawing sheet, FIG.4D
The patent's description of the figure: FIG. 4A provides the MS spectrum for Compound 3. FIG. 4B provides the HPLC chromatogram for Compound 3. FIG. 4C provides SPR assay curves showing the binding affinity of Compound 3 for IL-13, the x-axis represents time of reaction and y-axis represents altitude of response (Response Units). FIG. 4D illustrates skin permeation rate of Compound 3 for up to 24 hours. FIG. 4E illustrates average permeability coefficient (Kp) of Compound 3 for 1, 2, 4, 8, 12 and 24 hours.
First reader's note: The substance name is printed only in the legend of the plot above the table; columns 2 to 4 are three replicate permeation measurements.

FIG. 6D = test: FIG. 6D
Description: Table printed on a drawing sheet, FIG. 6D
The patent's description of the figure: FIG. 6A provides the MS spectrum of Compound 5. FIG. 6B provides the HPLC chromatogram for Compound 5. FIG. 6C provides SPR assay curves showing the binding affinity of Compound 5 for IL-13, the x-axis represents time of reaction and y-axis represents altitude of response (Response Units). FIG. 6D illustrates skin permeation rate of Compound 5 for up to 24 hours. FIG. 6E illustrates average permeability coefficient (Kp) of Compound 5 for 1, 2, 4, 8, 12 and 24 hours.
First reader's note: The substance name Compound 5 comes from the legend of the plot printed above the table; the values are three replicate permeation measurements with their average and range.

Chain of Human IL-13 (P35225 25-146): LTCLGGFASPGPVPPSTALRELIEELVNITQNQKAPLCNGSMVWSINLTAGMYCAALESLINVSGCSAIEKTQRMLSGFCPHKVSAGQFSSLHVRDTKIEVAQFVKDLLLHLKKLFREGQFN

| Permeation Avg. (%) (FIG. 5D) | Permeation Avg. (%) (FIG. 6D) | Structure (SMILES) | Kd (Human IL-13) | Average Permeation Rate After 1 Hour (%) [1] | Average Permeation Rate After 24 Hours (%) [1] | Papp at 1 h, 1 mg/mL [1] | Permeation Avg. (%) (FIG. 7D) | Papp at 24 h, 1 mg/mL [1] | Permeation Avg. (%) (FIG. 3D) | Permeation Avg. (%) (FIG. 2D) | Permeation Avg. (%) (FIG.4D) |
| --- | --- | --- | --- | --- | --- | --- | --- | --- | --- | --- | --- |
| – | – | CC(C)[C@H]1NC(=O)[C@@H]([C@H](C)O)NC(=O)[C@H](CCC(=O)O)NC(=O)[C@H](CCCNC(=N)N)NC(=O)[C@H](Cc2ccc(O)cc2)NC(=O)[C@H]2CCCN2C1=O [Compound 6, Tyr Arg Glu D-Thr D-Val D-Pro] (cyclo(E[dT][dV][dP]YR)) | 55.4 µM | 15.34% | 33.86% | 9.14 ×10⁻⁶ cm/s | 22.01% and 26.17% and 29.25% and 31.77% | – | – | – | – |
| 21.81% and 27.10% and 30.14% and 33.22% | – | CC(C)[C@H]1NC(=O)[C@H](CCC(=O)O)NC(=O)[C@H](CCCNC(=N)N)NC(=O)[C@H]2CCCN2C(=O)[C@H]2CCCN2C(=O)[C@H](Cc2c[nH]c3ccccc23)NC1=O [Compound 4, Arg Glu D-Val Trp D-Pro D-Pro] (cyclo(E[dV]W[dP][dP]R)) | 26.2 µM | 17.28% | 35.59% | 10.3 ×10⁻⁶ cm/s | – | > 0.0278 ×10⁻⁶ cm/s | – | – | – |
| – | – | CC(C)[C@H]1NC(=O)[C@H]([C@@H](C)O)NC(=O)[C@H](CCCNC(=N)N)NC(=O)[C@H]2CCCN2C(=O)[C@@H](Cc2ccccc2)NC(=O)[C@H](CCC(=O)O)NC1=O [Compound 2, Arg Thr D-Val Glu D-Phe D-Pro] (cyclo(E[dF][dP]RT[dV])) | 17.4 µM | 14.62% | 30.51% | 8.69 ×10⁻⁶ cm/s | – | – | 18.57% and 23.21% and 25.36% and 28.50% | – | – |
| – | – | CC(C)[C@H]1NC(=O)[C@@H](Cc2ccccc2)NC(=O)[C@@H](CCCNC(=N)N)NC(=O)[C@@H]2CCCN2C(=O)[C@H](CCC(=O)O)NC(=O)[C@H](Cc2ccc(O)cc2)NC1=O [Compound 1, D-Arg D-Phe D- Val Tyr Glu Pro] (cyclo(EP[dR][dF][dV]Y)) | 16 µM | 18.54% | 42.06% | 11.1 ×10⁻⁶ cm/s | – | > 0.0278 ×10⁻⁶ cm/s | – | 23.80% and 30.38% and 34.53% and 39.28% | – |
| – | – | CC(C)[C@H]1NC(=O)[C@@H]([C@H](C)O)NC(=O)[C@H](CCC(=O)O)NC(=O)[C@H]2CCCN2C(=O)[C@H]2CCCN2C(=O)[C@H](Cc2c[nH]c3ccccc23)NC1=O [Compound 3, Glu D-Thr D-Val Trp D-Pro D-Pro] (cyclo(E[dT][dV]W[dP][dP])) | 22.8 µM | 19.61% | 36.59% | 11.7 ×10⁻⁶ cm/s | – | – | – | – | 24.16% and 28.65% and 31.31% and 34.61% |
| – | 29.54% and 37.22% and 40.94% and 45.90% | CC(C)[C@@H]1NC(=O)[C@H](Cc2c[nH]c3ccccc23)NC(=O)[C@H]2CCCN2C(=O)[C@H]2CCCN2C(=O)[C@H](CCC(=O)O)NC(=O)[C@H](CCCNC(=N)N)NC1=O [Compound 5, Trp Val Arg Glu D-Pro D-Pro] (cyclo(E[dP][dP]WVR)) | 47.1 µM | – | 48.73% | 13.4 ×10⁻⁶ cm/s | – | – | – | – | – |

Source: patent US12180307B2, “Interleukin-13 binding cyclic oligopeptides and methods of use thereof” (B.A.I. LABORATORIES, LLC, priority 2022, dated 2024)
